Experimental data reported in US12534469B2 (CHILDREN'S HOSPITAL MEDICAL CENTER, priority 2020, dated 2026).
Positions count from the first letter of the chain named. Where two headings read alike, the source gives them in different places.

Tests used:
FLT3 ITD = target: T1, FLT3 ITD (Homo sapiens, UniProt P36888, ITD); test: DiscoverX KINOMEscan competition binding assay, FLT3 ITD
T1 sequence (P36888 564-993): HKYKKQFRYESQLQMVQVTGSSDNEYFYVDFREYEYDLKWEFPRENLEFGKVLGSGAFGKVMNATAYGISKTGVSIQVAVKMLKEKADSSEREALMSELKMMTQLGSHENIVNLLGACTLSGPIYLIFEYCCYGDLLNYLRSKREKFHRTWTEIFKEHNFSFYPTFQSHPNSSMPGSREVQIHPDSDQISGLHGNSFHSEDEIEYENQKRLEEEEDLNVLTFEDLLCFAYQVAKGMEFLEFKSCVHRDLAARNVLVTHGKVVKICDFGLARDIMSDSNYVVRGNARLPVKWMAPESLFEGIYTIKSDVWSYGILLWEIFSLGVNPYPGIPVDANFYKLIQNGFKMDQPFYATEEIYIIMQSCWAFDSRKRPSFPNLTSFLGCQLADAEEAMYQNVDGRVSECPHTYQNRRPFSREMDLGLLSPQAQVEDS
Text: (§1) Kinase binding data were obtained for various exemplary compounds prepared according to Examples 1-25 using the DiscoverX KINOMEscan® active site-directed competition binding site-directed assay protocol described below. […] As a result, the data report thermodynamic interaction affinities (Kd values), rather than IC50 values that are dependent on ATP concentrations. The assay uses a DNA-tagged version of the protein kinase, and an immobilized ligand bound to a solid support. Compounds that directly or indirectly prevent kinase binding to the immobilized ligand reduce the amount of kinase captured on the solid support, which is detected using an ultra-sensitive qPCR method. Affinity constants reported from the assay have been reported to be independent of the immobilized ligand used that is coupled to the solid support (See supplemental information in Fabian, M. A. et. al., (2005) Nat. Biotechnol. 23, 329-336; Wodicka, L. M. et. al., (2010) Chem. Biol. 17, 1241-1249.)
(§2) Kinase-tagged T7 phage strains were prepared in an E. coli host derived from the BL21 strain. E. coli were grown to log-phase and infected with T7 phage and incubated with shaking at 32° C. until lysis. The lysates were centrifuged and filtered to remove cell debris. The remaining kinases were produced in HEK-293 cells and subsequently tagged with DNA for qPCR detection. […] The liganded beads were blocked with excess biotin and washed with blocking buffer (SeaBlock (Pierce), 1% BSA, 0.05% Tween 20, 1 mM DTT) to remove unbound ligand and to reduce non-specific binding. […] Test compounds were prepared as 111× stocks in 100% DMSO. Kds were determined using an 11-point 3-fold compound dilution series with three DMSO control points. […] The compounds were then diluted directly into the assays such that the final concentration of DMSO was 0.9%. All reactions were performed in polypropylene 384-well plates. Each was a final volume of 0.02 mL. […] The kinase concentration in the eluates was measured by qPCR.
(§3) Binding constants (Kds) were calculated with a standard dose-response curve using the Hill equation. […]

FLT3 = target: T2, FLT3 (Homo sapiens, UniProt P36888); test: DiscoverX KINOMEscan competition binding assay, FLT3
T2 construct: using full-length kinases in the presence of cellular concentrations of ATP in live, uncompromised cells; assay by Reaction Biology; host or cells: HEK-293 (ATCC), transient transfection
T2 sequence (P36888 27-993): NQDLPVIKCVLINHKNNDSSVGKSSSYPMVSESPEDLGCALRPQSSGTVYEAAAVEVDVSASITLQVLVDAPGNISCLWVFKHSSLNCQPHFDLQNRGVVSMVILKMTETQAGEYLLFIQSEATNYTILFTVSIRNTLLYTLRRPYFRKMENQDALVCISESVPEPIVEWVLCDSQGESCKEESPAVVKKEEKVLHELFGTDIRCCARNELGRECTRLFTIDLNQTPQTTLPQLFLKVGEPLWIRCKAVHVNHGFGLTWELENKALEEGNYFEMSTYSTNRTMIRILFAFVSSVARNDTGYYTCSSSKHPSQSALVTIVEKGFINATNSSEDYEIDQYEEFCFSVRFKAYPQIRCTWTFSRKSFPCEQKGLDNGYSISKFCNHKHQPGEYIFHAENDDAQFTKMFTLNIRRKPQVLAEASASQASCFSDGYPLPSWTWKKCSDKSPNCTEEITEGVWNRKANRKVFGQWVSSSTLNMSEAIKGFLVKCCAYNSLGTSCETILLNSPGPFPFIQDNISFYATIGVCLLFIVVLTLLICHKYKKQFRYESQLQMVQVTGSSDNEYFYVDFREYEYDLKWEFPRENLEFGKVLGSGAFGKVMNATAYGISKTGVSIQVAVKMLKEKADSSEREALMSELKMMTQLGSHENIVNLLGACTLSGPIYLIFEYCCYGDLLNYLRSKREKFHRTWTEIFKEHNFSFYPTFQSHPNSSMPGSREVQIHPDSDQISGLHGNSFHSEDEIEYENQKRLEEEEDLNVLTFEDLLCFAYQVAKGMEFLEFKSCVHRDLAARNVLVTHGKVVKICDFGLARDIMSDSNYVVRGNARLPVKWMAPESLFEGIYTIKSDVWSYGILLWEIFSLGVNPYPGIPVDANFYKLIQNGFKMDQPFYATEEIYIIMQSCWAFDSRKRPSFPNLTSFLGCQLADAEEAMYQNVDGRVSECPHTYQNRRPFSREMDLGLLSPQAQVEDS
Text: as §1, §2, §3

FLT3 ITD, F691L = target: T3, FLT3 ITD, F691L (Homo sapiens, UniProt P36888, F691L/ITD); test: DiscoverX KINOMEscan competition binding assay, FLT3 ITD, F691L
T3 sequence (P36888 564-993 F691L): T1 sequence (P36888 564-993) with F128L
Text: as §1, §2, §3

FLT3 Autoinh. = target: T4, FLT3 Autoinh. (Homo sapiens, UniProt P36888); test: DiscoverX KINOMEscan competition binding assay, FLT3 Autoinh.
T4 construct: purchased DiscoverX (KINOMEscan); host or cells: E. coli (T7 phage) or HEK-293
T4 sequence (P36888 564-993 limits assumed): T1 sequence (P36888 564-993)
Text: as §1, §2, §3

In the case of `COc1cc2ncc(-c3cccc(N[C@H]4CNCC[C@@H]4F)n3)n2nc1C1CC1` [Compound 102, 6-(6-cyclopropyl-7-methoxyimidazo[1,2-b]pyridazin-3-yl)-N-((3S,4S)-4-fluoropiperidin-3-yl)pyridin-2-amine], the Kd (FLT3 ITD; read-out: FLT3 ITD Kd) is reported as 0.54 nM, the Kd (FLT3) is reported as 0.13 nM and the Kd (FLT3 ITD, F691L; read-out: FLT3 ITD, F691L Kd) is reported as 0.14 nM. The Kd (FLT3 Autoinh.) was 17 nM.

`COc1cc2ncc(-c3cccc(N[C@@H]4CCNC4)n3)n2nc1C1CC1` [Compound 97, (R)-6-(6-cyclopropyl-7-methoxyimidazo[1,2-b]pyridazin-3-yl)-N-(pyrrolidin-3-yl)pyridin-2-amine] showed a Kd (FLT3 ITD; read-out: FLT3 ITD Kd) of 0.19 nM, a Kd (FLT3) of 0.19 nM and a Kd (FLT3 ITD, F691L; read-out: FLT3 ITD, F691L Kd) of 0.19 nM. For the same compound, the Kd (FLT3 Autoinh.) was 13 nM.

With `COc1cc2ncc(-c3cccc(N[C@H]4CNC[C@@H]4F)n3)n2nc1C1CC1` [Compound 96, 6-(6-cyclopropyl-7-methoxyimidazo[1,2-b]pyridazin-3-yl)-N-((3S,4S)-4-fluoropyrrolidin-3-yl)pyridin-2-amine] the Kd (FLT3 ITD) was 1 nM, the Kd (FLT3) was 0.31 nM and the Kd (FLT3 ITD, F691L) was 0.37 nM. The Kd (FLT3 Autoinh.) was 11 nM.
